Measurements from paper PMC12064818, “A general assay platform to study protein pharmacology using ligand-dependent structural dynamics” (Nature Communications, 2025).

Target: T1, FLuc-C-HiBiT (Photinus pyralis, UniProt P08659)
T1 construct: firefly luciferase with C-terminal HiBiT tag, E. coli expressed
Assay: biochemical
Conditions: enzyme activity, 10 uM ATP; read-out: IC50 or SDR50 (mM) / FLuc E

T1 sequence (P08659 whole entry, looked up): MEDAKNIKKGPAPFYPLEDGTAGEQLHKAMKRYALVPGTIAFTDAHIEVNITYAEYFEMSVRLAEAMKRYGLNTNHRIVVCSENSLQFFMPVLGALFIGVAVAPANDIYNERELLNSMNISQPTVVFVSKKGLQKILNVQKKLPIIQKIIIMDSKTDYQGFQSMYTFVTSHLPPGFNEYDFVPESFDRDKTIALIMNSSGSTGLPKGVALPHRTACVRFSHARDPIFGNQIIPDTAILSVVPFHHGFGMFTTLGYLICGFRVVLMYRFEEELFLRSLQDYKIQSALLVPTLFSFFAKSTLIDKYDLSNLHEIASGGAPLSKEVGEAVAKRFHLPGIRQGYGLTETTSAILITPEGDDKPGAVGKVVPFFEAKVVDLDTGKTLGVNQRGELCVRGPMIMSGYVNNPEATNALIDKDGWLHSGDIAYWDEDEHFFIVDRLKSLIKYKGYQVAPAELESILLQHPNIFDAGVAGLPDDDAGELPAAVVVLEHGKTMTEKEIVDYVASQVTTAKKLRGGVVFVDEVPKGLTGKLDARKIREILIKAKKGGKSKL

Structure (SMILES)	IC50 [µM]
CSc1ccc(C(=O)Nc2ccc(-c3nc4ccccc4s3)c(O)c2)cc1 [NCGC00134695-01]	> 30
CCSc1ccc(C(=O)Nc2ccc(-c3nc4ccc(C)cc4s3)cc2)cc1 [NCGC00134697-01]	> 30
Cc1ccccc1Cn1cccc(C(=O)Nc2nc3ccccc3s2)c1=O [NCGC00134725-01]	0.881
CC(C)Oc1ccc(C(=O)Nc2nnc3n2CCS3)cc1 [NCGC00134921-01]	17.6
O=C(COc1ccc(Cl)cc1)Nc1ccc(O)c(-c2nc3ccccc3s2)c1 [NCGC00135616-01]	> 30
COc1ccc(C(=O)Nc2ccccc2-c2nc3ccccc3s2)c(OC)c1 [NCGC00135640-01]	> 30
O=C(Nc1ccccc1-c1nc2ccccc2s1)c1cc(Cl)cc(Cl)c1 [NCGC00135642-01]	> 30
COc1ccc(-c2nc(C)c(CCNC(=O)c3cccs3)s2)cc1 [NCGC00135787-01]	11.1
Cc1ccc(-c2nc(C)c(CCNC(=O)c3cccs3)s2)cc1 [NCGC00135815-01]	17.6
COc1ccc(-c2nc(C)c(CCNC(=O)c3c(F)cccc3F)s2)cc1 [NCGC00135823-01]	> 30
O=C(CSc1nccn1Cc1ccco1)Nc1ccc(OC(F)(F)F)cc1 [NCGC00136029-01]	12.4
O=C(CSc1nnc2[nH]c(=O)cc(-c3ccccc3)n12)Nc1ccc(OC(F)(F)F)cc1 [NCGC00136515-01]	7
CCOc1ccc2nc(N(Cc3cccnc3)C(=O)c3cccs3)sc2c1 [NCGC00136637-01]	> 30
CC(=O)c1ccc(NC(=O)CSc2nnc(NC(=O)Nc3ccccc3)s2)cc1 [NCGC00136900-01]	0.881
CCOc1ccc2nc(N3CCN(C(=O)c4ccco4)CC3)sc2c1 [NCGC00137033-01]	12.4
CCCC(=O)N1CCN(c2nc3ccc(F)cc3s2)CC1 [NCGC00137065-01]	11.1
Cc1c(CCNC(=O)c2ccc(Br)o2)sc2nc(-c3ccc(Cl)cc3)nn12 [NCGC00137117-01]	12.4
O=C(Nc1ccc2c(c1)OCCO2)c1cccn(Cc2ccccc2)c1=O [NCGC00137349-01]	11.1
Cc1cccn2c(=O)c(C(=O)NCCc3ccccc3)cnc12 [NCGC00137532-01]	7
CN(C)c1cccc(C(=O)Nc2ccc(-c3nc4ccccc4s3)cc2)c1 [NCGC00137782-01]	8.81

Structure (SMILES)	IC50 [µM]
COc1cccc(CC(=O)Nc2ccc(-c3nc4ccccc4s3)cc2)c1 [NCGC00137800-01]	8.81
COc1cccc(C(=O)Nc2ccc(-c3nc4ccccc4s3)cc2Cl)c1 [NCGC00137802-01]	> 30
COc1ccc(CC(=O)Nc2ccc(-c3nc4ccccc4s3)cc2Cl)cc1OC [NCGC00137804-01]	> 30
COc1cccc(CC(=O)Nc2ccc(-c3nc4ccccc4s3)cc2Cl)c1 [NCGC00137806-01]	> 30
COc1ccc(CC(=O)Nc2ccc(-c3nc4ccccc4s3)cc2Cl)cc1 [NCGC00137808-01]	> 30
Cc1cccc(C(=O)Nc2ccc(-c3nc4ccccc4s3)cc2Cl)c1 [NCGC00137810-01]	> 30
CCOc1cc(C(=O)Nc2ccc(-c3nc4ccccc4s3)cc2Cl)cc(OCC)c1OCC [NCGC00137812-01]	12.4
COc1cc(OC)cc(C(=O)Nc2ccc(-c3nc4ccccc4s3)c(C)c2)c1 [NCGC00137814-01]	> 30
COc1ccc(CC(=O)Nc2ccc(-c3nc4ccccc4s3)c(C)c2)cc1OC [NCGC00137832-01]	> 30
Cc1cc(NC(=O)c2ccccc2F)ccc1-c1nc2ccccc2s1 [NCGC00137834-01]	2.48
COc1ccc(CC(=O)Nc2ccc(-c3nc4ccccc4s3)c(C)c2)cc1 [NCGC00137836-01]	> 30
Cc1cccc(C(=O)Nc2ccc(-c3nc4ccccc4s3)c(C)c2)c1 [NCGC00137838-01]	9.89
COc1ccccc1C(=O)Nc1ccc(-c2nc3ccccc3s2)c(C)c1 [NCGC00137840-01]	9.89
CCOc1ccc(C(=O)Nc2ccc(-c3nc4ccccc4s3)c(C)c2)cc1OCC [NCGC00137842-01]	> 30
COc1ccc2cc(-c3nc4ccc(C(=O)O)cc4[nH]3)c(=O)oc2c1 [NCGC00138156-01]	0.0157
CCOc1cccc2cc(-c3nc4ccc(C(=O)O)cc4[nH]3)c(=O)oc12 [NCGC00138160-01]	0.157
Cc1ccc(-n2ncc3c(N(C)Cc4ccccc4)ncnc32)cc1 [NCGC00139028-01]	1.57
COc1ccc(-n2ncc3c(NC4CCCC4)ncnc32)cc1 [NCGC00139254-01]	1.76
O=[S+]([O-])(c1cccc(C(F)(F)F)c1)n1c(/C=C/c2ccccc2)nc2ccccc21 [NCGC00139418-01]	0.556
Cc1ccc(/C=C/c2nc3ccccc3[nH]2)cc1 [NCGC00139422-01]	0.0442

Structure (SMILES)	IC50 [µM]
O=[S+]([O-])(c1cccc(Cl)c1)n1c(/C=C/c2ccccc2Cl)nc2ccccc21 [NCGC00139448-01]	0.176
CSc1ccc(/C=C/c2nc3ccccc3n2[S+](=O)([O-])c2ccc(F)c(C)c2)cc1 [NCGC00139450-01]	0.7
Cc1cccc(N2CCN(C(=O)CSCc3ccc(F)cc3)CC2)c1C [NCGC00140140-01]	> 30
Cc1ccc(/C=C/c2nc3ccccc3n2S(=O)(=O)c2cccc(Cl)c2)cc1 [NCGC00140605-01]	0.124
Cc1ccc(/C=C/c2nc3ccccc3n2S(=O)(=O)c2ccc(Br)cc2)cc1 [NCGC00140607-01]	0.624
CCc1ccc(C2=CC(c3cccc(C)c3)n3c(nc4ccccc43)N2)cc1 (stereo not drawn) [NCGC00140745-01]	0.881
Cc1ccc(C2=CC(c3ccccc3C)n3c(nc4ccccc43)N2)cc1 (stereo not drawn) [NCGC00140747-01]	4.42
CC(C)c1ccc(C2=CC(c3ccc(C(C)C)cc3)n3nnnc3N2)cc1 (stereo not drawn) [NCGC00140789-01]	> 30
CCOC(=O)N1CCc2c(sc(NCc3cccc(F)c3)c2C(=O)Nc2ccc(OC)cc2OC)C1 [NCGC00140797-01]	2.48
CCOC(=O)N1CCc2c(sc(NCc3cccs3)c2C(=O)Nc2ccc(OC)cc2OC)C1 [NCGC00140799-01]	3.13
CCOC(=O)N1CCc2c(sc(NCc3sccc3C)c2C(=O)Nc2ccc(OC)cc2OC)C1 [NCGC00140803-01]	4.95
CCOC(=O)N1CCc2c(sc(NCc3ccc(OCC)cc3)c2C(=O)Nc2ccc(OC)cc2OC)C1 [NCGC00140805-01]	3.94
Cc1ccc(C2=CC(c3ccccc3F)n3c(nc4ccccc43)N2)cc1C (stereo not drawn) [NCGC00140809-01]	3.13
COc1ccc(NC(=O)c2cc3ccccc3o2)c(OC)c1 [NCGC00141077-01]	4.95
COc1ccc(-c2nc3ccccc3s2)cc1NC(=O)c1cccc(F)c1 [NCGC00141116-01]	> 30
COc1ccc(-c2nc3ccccc3s2)cc1NC(C)=O [NCGC00141118-01]	6.24
Cc1ccc(-c2nnc(SCc3ccccc3)o2)cc1 [NCGC00141131-01]	11.1
COc1ccccc1OCc1nc2ccccc2n1Cc1ccccc1 [NCGC00141136-01]	14

Continued, values first:

IC50 [µM]	Structure (SMILES)
0.7	Cc1cccc(-n2ncc3c(N4CCCC(C)C4)ncnc32)c1 (stereo not drawn) [NCGC00138848-01]
> 30	Cc1ccc(Cl)cc1-n1ncc2c(N3CCC(C)CC3)ncnc21 [NCGC00138926-01]
> 30	Cc1ccc(Cl)cc1-n1ncc2c(N3CCC(C(N)=O)CC3)ncnc21 [NCGC00138952-01]
1.24	Fc1ccc(-n2ncc3c(N4CCCCCC4)ncnc32)cc1 [NCGC00138953-01]
0.624	Cc1ccc(-n2ncc3c(NC4CCCC4)ncnc32)cc1 [NCGC00138985-01]
0.881	CCN(c1ncnc2c1cnn2-c1ccc(C)cc1)C1CCCCC1 [NCGC00138994-01]
5.56	Cc1ccc(-n2ncc3c(N4CCN(C)CC4)ncnc32)cc1 [NCGC00139016-01]
0.197	Cc1ccc(-n2ncc3c(N4CCCCCC4)ncnc32)cc1 [NCGC00139018-01]
> 30	Cc1ccc(-n2ncc3c(N4CCC(Cc5ccccc5)CC4)ncnc32)cc1 [NCGC00139020-01]
0.197	Cc1ccc(-n2ncc3c(N4CCCCC4)ncnc32)cc1 [NCGC00139024-01]
11.1	CC1CCN(c2ncnc3c2cnn3-c2ccc(F)cc2)CC1 [NCGC00139049-01]
0.7	CC1CCCN(c2ncnc3c2cnn3-c2ccc(F)cc2)C1 (stereo not drawn) [NCGC00139051-01]
> 30	Fc1ccc(-n2ncc3c(N4CCC(Cc5ccccc5)CC4)ncnc32)cc1 [NCGC00139053-01]
12.4	Cc1ccc(-n2ncc3c(N4CCC(C(N)=O)CC4)ncnc32)cc1 [NCGC00139056-01]
11.1	COCC(C)Nc1ncnc2c1cnn2-c1cccc(Cl)c1 (stereo not drawn) [NCGC00139080-01]
1.76	Cc1ccc(-n2ncc3c(NC4CCCCC4)ncnc32)cc1C [NCGC00139081-01]
5.56	CCN(c1ncnc2c1cnn2-c1cccc(Cl)c1)C1CCCCC1 [NCGC00139112-01]
4.95	Cc1ccc(-n2ncc3c(N4CCC(C)CC4)ncnc32)cc1C [NCGC00139121-01]
> 30	Cc1ccc(-n2ncc3c(N4CCC(Cc5ccccc5)CC4)ncnc32)cc1C [NCGC00139123-01]
> 30	Clc1cccc(-n2ncc3c(N4CCC(Cc5ccccc5)CC4)ncnc32)c1 [NCGC00139124-01]
0.989	Clc1cccc(-n2ncc3c(N4CCCCC4)ncnc32)c1 [NCGC00139126-01]
2.79	Cc1ccc(-n2ncc3c(NC4CCCCC4)ncnc32)cc1Cl [NCGC00139149-01]
> 30	NC(=O)C1CCN(c2ncnc3c2cnn3-c2cccc(Cl)c2)CC1 [NCGC00139154-01]
0.881	Cc1cccc(-n2ncc3c(N4CCCCCC4)ncnc32)c1 [NCGC00139171-01]
> 30	CCOC(=O)C1CCCN(c2ncnc3c2cnn3-c2ccc(C)c(Cl)c2)C1 (stereo not drawn) [NCGC00139179-01]
0.7	Cc1ccc(-n2ncc3c(N4CCCCCC4)ncnc32)cc1Cl [NCGC00139187-01]
2.21	Cc1ccc(-n2ncc3c(N(C)C)ncnc32)cc1Cl [NCGC00139189-01]
0.785	Cc1ccc(-n2ncc3c(N4CCCCC4)ncnc32)cc1Cl [NCGC00139209-01]
1.24	Clc1ccc(-n2ncc3c(NC4CCCC4)ncnc32)cc1 [NCGC00139250-01]
